In patent US10676721B2, “Bacteriophages expressing antimicrobial peptides and uses thereof” (priority 2009, dated 2020):
Peptide text beside a SMILES is read from it.

What was measured:
[1] = Toxicity of AMPs (Table 3, method not described); set-up: unit not given here; settings: two values per AMP
[2] = test system: S. aureus; settings: CHAP165, from ROSS 2009; cited from earlier work
[3] = test system: E. coli strain that expresses capsular polysaccharide K; test: Mixed culture of E. coli host strain and E. coli strain expressing capsular polysaccharide K; format: cell-based, Escherichia coli
Excerpt: The expression of the genomic payload of lytic peptides and proteins increases the utility of the engineered bacteriophage to treat heterologous infections.

[4] = test system: Staph aureus; test: Staph aureus growth in sterile media isolated 6 hours after M13 infection of EMG2 (FIG. 30); format: cell-based, Staphylococcus aureus; settings: no phage control 1.6
Experimental: The inventors isolated the media in which the antimicrobial agents were released. The inventors next infected a growing mid-log culture of EMG2 with the different wild-type and engineered M13 phage. At 6 hours post infection, the EMG2 cells were centrifuged at 13,000 g and filtered through a 0.2 um membrane to collect sterile media with the released AmP and enzyme. The media was replenished in nutrients by adding 5× concentrated LB solution. Mid-log Staph bacteria where then inoculated in the media at a concentration of 10^5 CFU/ml.
For example, the “no phage” or the “m13 mp 18” staph culture reach an OD of 0.8 within 4 hours whereas the “M13.pTRC.Omp.PonW3” media containing PonW3 (SEQ ID NO: 40) causes a growth delay by another 4 hours, the culture reaches the same OD of 0.8 only after 8 hours of growth. Finally, release of CHAP165 in the surrounding media due to phage reengineering limited staph growth to an OD level of 0.8 while compared to 1.6 for the no phage control and 1.2 for the wild M13mp18.

[5] = test system: Staphylococcus aureus; test: Co-culture of E. coli with Staphylococcus aureus; format: cell-based
[6] = test system: antibiotic-resistant staphylococci; settings: cited from earlier work

CC[C@H](C)[C@H](NC(=O)CN)C(=O)N[C@@H](Cc1c[nH]c2ccccc12)C(=O)NCC(=O)N[C@H](C(=O)N[C@@H](CC(C)C)C(=O)N[C@@H](C)C(=O)N[C@@H](CCCCN)C(=O)N[C@H](C(=O)NCC(=O)N[C@H](C(=O)N[C@@H](CCCCN)C(=O)N[C@@H](C)C(=O)N[C@H](C(=O)N1CCC[C@H]1C(=O)N[C@@H](CCCNC(=N)N)C(=O)N[C@H](C(=O)N[C@H](C(=O)N[C@@H](CO)C(=O)N[C@@H](CCSC)C(=O)N[C@@H](CC(C)C)C(=O)N[C@@H](CCCCN)C(=O)N[C@@H](CCCCN)C(=O)N[C@@H](CCCCN)C(=O)N[C@@H](CCCCN)C(=O)N[C@@H](CCC(N)=O)C(=O)O)[C@@H](C)CC)C(C)C)C(C)C)[C@@H](C)CC)[C@@H](C)CC)[C@@H](C)O [J589_K4, Ponericin W3] (H-GIWGTLAKIGIKAVPRVISMLKKKKQ-OH)
Toxicity [1]: 64

CC[C@H](C)[C@H](NC(=O)[C@H](CCCCN)NC(=O)[C@H](CC(C)C)NC(=O)[C@H](C)NC(=O)[C@H](CO)NC(=O)CNC(=O)[C@H](CC(C)C)NC(=O)[C@@H](N)Cc1c[nH]c2ccccc12)C(=O)NCC(=O)N[C@@H](C)C(=O)N[C@@H](CCCCN)C(=O)N[C@@H](CC(C)C)C(=O)N[C@@H](CC(C)C)C(=O)N1CCC[C@H]1C(=O)N[C@@H](CO)C(=O)N[C@H](C(=O)N[C@H](C(=O)NCC(=O)N[C@@H](CC(C)C)C(=O)N[C@@H](Cc1ccccc1)C(=O)N[C@@H](CCCCN)C(=O)N[C@@H](CCCCN)C(=O)N[C@@H](CCCCN)C(=O)N[C@@H](CCCCN)C(=O)N[C@@H](CCC(N)=O)C(=O)O)C(C)C)C(C)C [J6123_D7, Ponericin W1] (H-WLGSALKIGAKLLPSVVGLFKKKKQ-OH)
Toxicity [1]: 64

CC(C)C[C@H](NC(=O)[C@H](CC(C)C)NC(=O)[C@H](Cc1ccccc1)NC(=O)[C@H](CC(C)C)NC(=O)[C@H](CC(C)C)NC(=O)[C@@H](N)CC(C)C)C(=O)N[C@@H](CCCCN)C(=O)N[C@@H](CCCCN)C(=O)N[C@@H](CCCNC(=N)N)C(=O)N[C@@H](CCCCN)C(=O)N[C@@H](CCCCN)C(=O)N[C@@H](CCCNC(=N)N)C(=O)N[C@@H](CCCCN)C(=O)N[C@@H](Cc1ccc(O)cc1)C(=O)O [J589_D1] (H-LLLFLLKKRKKRKY-OH)
Toxicity [1]: 512

CC[C@H](C)[C@H](NC(=O)[C@H](C)NC(=O)[C@H](CCCCN)NC(=O)CNC(=O)[C@H](C)NC(=O)[C@H](Cc1c[nH]cn1)NC(=O)[C@@H](NC(=O)[C@H](C)NC(=O)CNC(=O)[C@H](CCCCN)NC(=O)[C@@H](NC(=O)[C@H](CC(C)C)NC(=O)[C@H](Cc1c[nH]c2ccccc12)NC(=O)CNC(=O)[C@H](Cc1ccccc1)NC(=O)[C@@H](N)Cc1ccccc1)[C@@H](C)CC)[C@@H](C)CC)C(=O)N[C@@H](Cc1c[nH]cn1)C(=O)NCC(=O)N[C@@H](CC(C)C)C(=O)N[C@H](C(=O)N[C@@H](Cc1c[nH]cn1)C(=O)N[C@@H](CCCNC(=N)N)C(=O)N[C@@H](CCCNC(=N)N)C(=O)N[C@@H](CCCNC(=N)N)C(=O)N[C@@H](Cc1c[nH]cn1)C(=O)O)[C@@H](C)CC [J589_J6] (H-FFGWLIKGAIHAGKAIHGLIHRRRH-OH)
Toxicity [1]: 16

CC[C@H](C)[C@H](NC(=O)[C@H](CCCCN)NC(=O)[C@H](CCCCN)NC(=O)[C@H](Cc1ccccc1)NC(=O)[C@H](CC(C)C)NC(=O)[C@H](CCCCN)NC(=O)[C@H](Cc1c[nH]c2ccccc12)NC(=O)[C@@H](N)CCCCN)C(=O)N[C@@H](CC(C)C)C(=O)N[C@@H](CCCCN)C(=O)N[C@@H](Cc1ccccc1)C(=O)N[C@@H](CC(C)C)C(=O)N[C@@H](Cc1c[nH]cn1)C(=O)N[C@@H](CC(C)C)C(=O)N[C@@H](C)C(=O)N[C@@H](CCCCN)C(=O)N[C@@H](CCCCN)C(=O)N[C@@H](Cc1ccccc1)C(=O)O [J6084_F10] (H-KWKLFKKILKFLHLAKKF-OH)
Toxicity [1]: 32

CC[C@H](C)[C@H](NC(=O)[C@H](C)NC(=O)[C@@H]1CCCN1C(=O)CNC(=O)[C@H](C)NC(=O)[C@H](CCCCN)NC(=O)[C@@H](NC(=O)[C@H](CC(C)C)NC(=O)CNC(=O)[C@H](CC(=O)O)NC(=O)[C@H](CCCNC(=N)N)NC(=O)[C@@H](NC(=O)[C@H](CC(N)=O)NC(=O)[C@H](CCC(N)=O)NC(=O)CNC(=O)[C@@H](NC(=O)[C@H](CCCNC(=N)N)NC(=O)[C@H](CCC(=O)O)NC(=O)[C@@H](NC(=O)[C@H](CCCCN)NC(=O)[C@H](CCCCN)NC(=O)[C@H](Cc1ccccc1)NC(=O)[C@H](Cc1ccccc1)NC(=O)[C@H](CCCCN)NC(=O)[C@H](Cc1c[nH]c2ccccc12)NC(=O)[C@@H](N)CCCNC(=N)N)[C@@H](C)CC)C(C)C)C(C)C)[C@@H](C)CC)C(=O)N[C@@H](CCC(N)=O)C(=O)N[C@H](C(=O)N[C@@H](CC(C)C)C(=O)NCC(=O)N[C@@H](C)C(=O)N[C@@H](C)C(=O)N[C@@H](CCCCN)C(=O)N[C@@H](C)C(=O)N[C@@H](CC(C)C)C(=O)O)C(C)C [J6090_C11] (H-RWKFFKKIERVGQNVRDGLIKAGPAIQVLGAAKAL-OH)
Toxicity [1]: 256

CC[C@H](C)[C@H](NC(=O)[C@H](CC(C)C)NC(=O)[C@H](C)NC(=O)CNC(=O)[C@H](Cc1c[nH]c2ccccc12)NC(=O)[C@@H](N)Cc1ccccc1)C(=O)N[C@@H](CCCCN)C(=O)NCC(=O)N[C@@H](C)C(=O)N[C@@H](C)C(=O)N[C@@H](CCCCN)C(=O)N[C@@H](CC(C)C)C(=O)N[C@H](C(=O)N1CCC[C@H]1C(=O)N[C@@H](CO)C(=O)N[C@H](C(=O)N[C@H](C(=O)NCC(=O)N[C@@H](CC(C)C)C(=O)N[C@@H](Cc1ccccc1)C(=O)N[C@@H](CCCCN)C(=O)N[C@@H](CCCCN)C(=O)N[C@@H](CCCCN)C(=O)N[C@@H](CCC(N)=O)C(=O)O)C(C)C)C(C)C)[C@@H](C)CC [J6084_H2, Ponericin W5] (H-FWGALIKGAAKLIPSVVGLFKKKQ-OH)
Toxicity [1]: 32

CC[C@H](C)[C@H](NC(=O)CNC(=O)[C@H](CCCNC(=N)N)NC(=O)[C@H](Cc1ccccc1)NC(=O)[C@@H](NC(=O)[C@H](Cc1c[nH]cn1)NC(=O)[C@H](Cc1c[nH]cn1)NC(=O)[C@H](Cc1ccccc1)NC(=O)[C@@H](N)Cc1ccccc1)[C@@H](C)CC)C(=O)N[C@H](C(=O)N[C@@H](Cc1c[nH]cn1)C(=O)N[C@H](C(=O)NCC(=O)N[C@@H](CCCCN)C(=O)N[C@H](C(=O)N[C@H](C(=O)N[C@@H](Cc1c[nH]cn1)C(=O)N[C@@H](CCCCN)C(=O)N[C@@H](CC(C)C)C(=O)N[C@H](C(=O)N[C@H](C(=O)NCC(=O)O)[C@@H](C)O)C(C)C)[C@@H](C)CC)[C@@H](C)O)C(C)C)C(C)C [J589_H3] (H-FFHHIFRGIVHVGKTIHKLVTG-OH)
Toxicity [1]: 128

CC[C@H](C)[C@H](NC(=O)[C@H](CCCCN)NC(=O)[C@H](CC(C)C)NC(=O)[C@H](C)NC(=O)[C@H](CO)NC(=O)CNC(=O)[C@H](CC(C)C)NC(=O)[C@@H](N)Cc1c[nH]c2ccccc12)C(=O)NCC(=O)N[C@@H](C)C(=O)N[C@@H](CCCCN)C(=O)N[C@@H](CC(C)C)C(=O)N[C@@H](CC(C)C)C(=O)N1CCC[C@H]1C(=O)N[C@@H](CO)C(=O)N[C@H](C(=O)N[C@H](C(=O)NCC(=O)N[C@@H](CC(C)C)C(=O)N[C@@H](Cc1ccccc1)C(=O)N[C@@H](CCC(N)=O)C(=O)N[C@@H](CCCCN)C(=O)N[C@@H](CCCCN)C(=O)N[C@@H](CCCCN)C(=O)N[C@@H](CCCCN)C(=O)O)C(C)C)C(C)C [J589_J5] (H-WLGSALKIGAKLLPSVVGLFQKKKK-OH)
Toxicity [1]: 32

B1: CHAP165 (protein)
chain: AKTQAEINKRLDAYAKGTVDSPYRVKKATSYDPSFGVMEAGAIDADGYYHAQCQDLITDYVLWLTDNKVRTWGNAKDQIKQSYGTGFKIHENKPSTVPKKGWIAVFTSGSYEQWGHIGIVYDGGNTSTFTILEQNWNGYANKKPTKRVDNYYGLTHFIEIPVKA
MIC SA [2]: ~0.3 µg/mL | sterilization of the heterogeneous E. coli culture [3]: sterilize the heterogeneous E. coli culture completely | lysis of the E. coli strain that expresses capsular polysaccharide K ([3]; lysK165 expressed from engineered bacteriophage): able to lyse | OD level to which staph growth is limited [4]: 0.8 | lysis of the staphylococcal population [5]: able to complete lyse | lytic activity compared with the natural LysK enzyme [6]: twice stronger lytic activity
